Test results taken from ChEMBL document CHEMBL4765434, “Pyrrolo[2,3-d]pyrimidine derivatives as inhibitors of RET: Design, synthesis and biological evaluation” (Eur J Med Chem, 2020).
Active and inactive are the calls of the source. No cut-off for these calls is given here.

What was measured:
[1] = molecular target: T1, Proto-oncogene tyrosine-protein kinase receptor Ret (Homo sapiens, UniProt P07949); experiment: Inhibition of recombinant human GST-tagged RET cytoplasmic domain (658 to 1114 residues) expressed in baculovirus expression system using 5-FAM-EEPLYWSFPAKKK-CONH2 as substrate preincubated for 60 mins followed by substrate addition by microfluidic assay
T1 sequence (P07949 whole entry, the tested form may be a part): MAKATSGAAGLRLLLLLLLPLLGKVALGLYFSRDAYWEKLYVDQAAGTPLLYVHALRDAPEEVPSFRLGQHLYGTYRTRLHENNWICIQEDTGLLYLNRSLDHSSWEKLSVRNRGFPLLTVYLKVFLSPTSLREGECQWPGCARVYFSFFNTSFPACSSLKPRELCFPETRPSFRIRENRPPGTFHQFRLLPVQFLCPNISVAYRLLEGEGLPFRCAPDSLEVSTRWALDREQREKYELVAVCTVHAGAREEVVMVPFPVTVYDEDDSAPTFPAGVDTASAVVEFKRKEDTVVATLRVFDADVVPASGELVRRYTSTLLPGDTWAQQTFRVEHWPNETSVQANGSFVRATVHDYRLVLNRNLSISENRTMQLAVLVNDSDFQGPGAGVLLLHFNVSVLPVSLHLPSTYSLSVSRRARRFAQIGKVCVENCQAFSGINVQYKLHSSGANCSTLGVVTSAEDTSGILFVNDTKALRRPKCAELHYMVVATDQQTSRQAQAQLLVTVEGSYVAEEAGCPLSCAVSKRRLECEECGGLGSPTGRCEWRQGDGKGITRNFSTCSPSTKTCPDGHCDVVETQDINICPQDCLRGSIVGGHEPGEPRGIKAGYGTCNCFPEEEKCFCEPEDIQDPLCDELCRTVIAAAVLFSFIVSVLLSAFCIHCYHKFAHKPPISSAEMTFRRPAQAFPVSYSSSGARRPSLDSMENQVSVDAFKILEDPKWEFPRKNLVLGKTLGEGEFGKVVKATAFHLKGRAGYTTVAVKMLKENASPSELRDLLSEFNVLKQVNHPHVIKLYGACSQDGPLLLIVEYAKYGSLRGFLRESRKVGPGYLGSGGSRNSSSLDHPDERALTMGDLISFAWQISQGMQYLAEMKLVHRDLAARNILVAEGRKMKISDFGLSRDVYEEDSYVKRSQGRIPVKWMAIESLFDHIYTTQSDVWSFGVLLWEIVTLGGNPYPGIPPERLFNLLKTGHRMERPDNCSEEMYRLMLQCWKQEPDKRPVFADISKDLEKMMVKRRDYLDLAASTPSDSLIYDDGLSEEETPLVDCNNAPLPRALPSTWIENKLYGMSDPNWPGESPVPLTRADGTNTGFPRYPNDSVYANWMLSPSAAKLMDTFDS

LC-2-ad [2] = experiment: Growth inhibition of human LC-2-ad cells measured after 3 days by resazurin staining based fluorescence assay; type: functional; settings: 72 h, time 3 day
LC-2-ad [3] = experiment: Inhibition of cell migration in human LC-2-ad cells assessed as migrated distance at 1 uM measured after 52 hrs by microscopic method (reference value: 819.01 +/- 65.76 micrometer); type: functional
[4] = molecular target: Proto-oncogene tyrosine-protein kinase receptor Ret (Homo sapiens, UniProt P07949, V804M); experiment: Inhibition of recombinant human N-terminal GST-HIS6 fused RET V804M mutant (658 to 1114 residues) expressed in Sf9 insect cells using 5-FAM-EEPLYWSFPAKKK-CONH2 as substrate preincubated for 60 mins followed by substrate addition by microfluidic assay
Chain of Proto-oncogene tyrosine-protein kinase receptor Ret (Homo sapiens, UniProt P07949, V804M) (P07949 29-1114 V804M limits assumed): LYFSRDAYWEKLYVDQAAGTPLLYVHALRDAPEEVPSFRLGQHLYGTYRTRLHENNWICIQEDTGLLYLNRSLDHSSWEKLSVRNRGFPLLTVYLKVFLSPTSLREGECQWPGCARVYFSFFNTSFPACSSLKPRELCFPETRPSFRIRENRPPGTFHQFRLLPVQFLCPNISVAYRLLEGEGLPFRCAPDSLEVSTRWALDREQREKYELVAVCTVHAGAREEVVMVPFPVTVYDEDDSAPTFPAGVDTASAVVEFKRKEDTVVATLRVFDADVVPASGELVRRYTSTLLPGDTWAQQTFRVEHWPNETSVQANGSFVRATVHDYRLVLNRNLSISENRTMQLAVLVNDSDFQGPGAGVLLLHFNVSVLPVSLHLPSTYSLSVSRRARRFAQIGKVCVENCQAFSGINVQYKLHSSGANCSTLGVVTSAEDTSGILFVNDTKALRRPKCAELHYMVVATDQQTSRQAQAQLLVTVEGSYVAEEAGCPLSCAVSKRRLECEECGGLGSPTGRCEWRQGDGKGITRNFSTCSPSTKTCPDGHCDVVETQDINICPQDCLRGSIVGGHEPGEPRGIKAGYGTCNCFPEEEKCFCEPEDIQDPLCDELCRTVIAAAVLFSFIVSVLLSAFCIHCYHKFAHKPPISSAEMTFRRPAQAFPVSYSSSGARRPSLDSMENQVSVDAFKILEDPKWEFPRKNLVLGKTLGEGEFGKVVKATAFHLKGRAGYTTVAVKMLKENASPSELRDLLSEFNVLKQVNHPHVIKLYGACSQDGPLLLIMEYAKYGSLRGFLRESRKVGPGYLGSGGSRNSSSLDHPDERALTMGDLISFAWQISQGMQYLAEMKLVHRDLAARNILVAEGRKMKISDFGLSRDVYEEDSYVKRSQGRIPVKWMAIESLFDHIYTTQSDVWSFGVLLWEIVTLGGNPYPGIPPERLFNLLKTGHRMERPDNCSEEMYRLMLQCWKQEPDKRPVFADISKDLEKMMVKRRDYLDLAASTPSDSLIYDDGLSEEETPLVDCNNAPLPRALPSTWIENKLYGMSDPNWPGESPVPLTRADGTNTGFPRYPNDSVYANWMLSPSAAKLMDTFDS

[5] = molecular target: Epidermal growth factor receptor (Homo sapiens, UniProt P00533); experiment: Inhibition of EGFR (unknown origin)
Chain of Epidermal growth factor receptor (P00533 whole entry): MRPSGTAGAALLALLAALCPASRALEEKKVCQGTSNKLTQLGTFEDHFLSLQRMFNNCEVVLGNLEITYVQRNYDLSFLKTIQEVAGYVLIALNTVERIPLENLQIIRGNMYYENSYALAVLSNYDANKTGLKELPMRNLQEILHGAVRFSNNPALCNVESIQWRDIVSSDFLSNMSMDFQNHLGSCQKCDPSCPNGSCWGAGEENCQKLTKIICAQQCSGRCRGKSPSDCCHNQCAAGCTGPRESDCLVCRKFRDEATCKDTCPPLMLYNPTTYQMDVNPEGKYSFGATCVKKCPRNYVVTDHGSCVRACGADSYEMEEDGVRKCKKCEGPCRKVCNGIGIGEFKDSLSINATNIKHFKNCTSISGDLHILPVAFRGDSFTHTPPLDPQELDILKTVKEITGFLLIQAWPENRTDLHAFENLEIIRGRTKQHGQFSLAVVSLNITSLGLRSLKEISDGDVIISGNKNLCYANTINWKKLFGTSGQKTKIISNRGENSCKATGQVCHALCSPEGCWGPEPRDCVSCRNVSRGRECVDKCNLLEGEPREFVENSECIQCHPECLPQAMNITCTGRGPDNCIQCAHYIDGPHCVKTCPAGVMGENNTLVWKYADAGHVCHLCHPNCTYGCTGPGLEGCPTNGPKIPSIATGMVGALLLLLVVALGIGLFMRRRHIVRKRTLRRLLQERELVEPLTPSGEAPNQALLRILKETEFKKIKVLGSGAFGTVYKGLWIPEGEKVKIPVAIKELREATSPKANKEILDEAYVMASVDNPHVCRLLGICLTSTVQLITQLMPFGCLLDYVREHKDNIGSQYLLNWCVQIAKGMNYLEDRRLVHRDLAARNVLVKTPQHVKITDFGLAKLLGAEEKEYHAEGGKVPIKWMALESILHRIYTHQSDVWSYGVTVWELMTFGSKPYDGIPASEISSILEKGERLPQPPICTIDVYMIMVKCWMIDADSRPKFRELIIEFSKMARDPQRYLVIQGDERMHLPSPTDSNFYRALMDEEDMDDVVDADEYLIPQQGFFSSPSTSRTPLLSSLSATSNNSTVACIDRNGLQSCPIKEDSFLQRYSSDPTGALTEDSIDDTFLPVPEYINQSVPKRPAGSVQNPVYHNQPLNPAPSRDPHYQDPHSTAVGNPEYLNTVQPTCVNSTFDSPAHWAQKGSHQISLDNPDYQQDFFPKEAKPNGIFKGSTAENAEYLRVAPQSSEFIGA

[6] = molecular target: Mitogen-activated protein kinase kinase kinase kinase 4 (Homo sapiens, UniProt O95819); experiment: Inhibition of MAP4K4 (unknown origin)
[7] = molecular target: T2, Serine/threonine-protein kinase Nek2 (Homo sapiens, UniProt P51955); experiment: Inhibition of Nek2 (unknown origin)
T2 sequence (P51955 whole entry): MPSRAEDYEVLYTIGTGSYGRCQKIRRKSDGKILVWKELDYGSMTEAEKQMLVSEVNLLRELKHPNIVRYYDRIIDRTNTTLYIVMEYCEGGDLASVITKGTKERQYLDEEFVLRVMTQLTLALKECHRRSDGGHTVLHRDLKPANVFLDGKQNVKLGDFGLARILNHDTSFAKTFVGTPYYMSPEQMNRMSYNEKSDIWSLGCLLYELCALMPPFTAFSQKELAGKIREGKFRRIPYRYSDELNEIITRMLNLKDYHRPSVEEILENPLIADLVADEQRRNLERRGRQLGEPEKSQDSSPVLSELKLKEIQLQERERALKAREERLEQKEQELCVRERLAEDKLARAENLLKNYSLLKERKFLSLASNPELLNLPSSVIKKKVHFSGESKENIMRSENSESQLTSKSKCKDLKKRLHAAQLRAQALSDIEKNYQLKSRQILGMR

[8] = molecular target: T1, Proto-oncogene tyrosine-protein kinase receptor Ret; experiment: Non competitive inhibition of recombinant human GST-tagged RET cytoplasmic domain (658 to 1114 residues) expressed in baculovirus expression system at 3.125 to 50 nM using 5-FAM-EEPLYWSFPAKKK-CONH2 as substrate by Lineweaver-burk plot analysis; settings: dose 3.125-50 nM
Aurora kinase B = Aurora kinase B (Homo sapiens, UniProt Q96GD4); experiment: Inhibition of Aurora B (unknown origin)
Chain of Aurora kinase B (Q96GD4 whole entry): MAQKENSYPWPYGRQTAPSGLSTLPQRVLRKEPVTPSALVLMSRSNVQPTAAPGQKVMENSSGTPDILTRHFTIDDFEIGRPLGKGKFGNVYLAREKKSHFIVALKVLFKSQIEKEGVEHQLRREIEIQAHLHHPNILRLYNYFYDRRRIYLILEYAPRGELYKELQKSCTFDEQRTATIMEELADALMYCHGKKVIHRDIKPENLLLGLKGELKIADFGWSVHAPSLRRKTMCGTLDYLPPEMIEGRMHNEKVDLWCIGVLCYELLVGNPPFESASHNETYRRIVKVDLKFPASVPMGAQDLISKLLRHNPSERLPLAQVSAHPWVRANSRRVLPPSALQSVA

Aurora kinase A = molecular target: T3, Aurora kinase A (Homo sapiens, UniProt O14965); experiment: Inhibition of Aurora A (unknown origin)
T3 sequence (O14965 whole entry): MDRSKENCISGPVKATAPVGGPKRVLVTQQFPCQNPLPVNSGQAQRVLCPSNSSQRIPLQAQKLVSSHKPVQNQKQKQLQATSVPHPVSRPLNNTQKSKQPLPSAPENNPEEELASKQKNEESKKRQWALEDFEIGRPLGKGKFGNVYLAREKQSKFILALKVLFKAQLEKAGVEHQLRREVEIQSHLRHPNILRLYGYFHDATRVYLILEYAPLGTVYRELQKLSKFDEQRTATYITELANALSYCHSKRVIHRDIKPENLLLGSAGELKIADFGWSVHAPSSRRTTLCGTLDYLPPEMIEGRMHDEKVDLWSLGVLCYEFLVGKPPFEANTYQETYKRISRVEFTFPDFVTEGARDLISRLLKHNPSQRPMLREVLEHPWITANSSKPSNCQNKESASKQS

[9] = molecular target: Macrophage colony-stimulating factor 1 receptor (Homo sapiens, UniProt P07333); experiment: Inhibition of CSF1R (unknown origin)
[10] = molecular target: Mitogen-activated protein kinase kinase kinase 14 (Homo sapiens, UniProt Q99558); experiment: Inhibition of NIK (unknown origin)
Chain of Mitogen-activated protein kinase kinase kinase 14 (Q99558 whole entry): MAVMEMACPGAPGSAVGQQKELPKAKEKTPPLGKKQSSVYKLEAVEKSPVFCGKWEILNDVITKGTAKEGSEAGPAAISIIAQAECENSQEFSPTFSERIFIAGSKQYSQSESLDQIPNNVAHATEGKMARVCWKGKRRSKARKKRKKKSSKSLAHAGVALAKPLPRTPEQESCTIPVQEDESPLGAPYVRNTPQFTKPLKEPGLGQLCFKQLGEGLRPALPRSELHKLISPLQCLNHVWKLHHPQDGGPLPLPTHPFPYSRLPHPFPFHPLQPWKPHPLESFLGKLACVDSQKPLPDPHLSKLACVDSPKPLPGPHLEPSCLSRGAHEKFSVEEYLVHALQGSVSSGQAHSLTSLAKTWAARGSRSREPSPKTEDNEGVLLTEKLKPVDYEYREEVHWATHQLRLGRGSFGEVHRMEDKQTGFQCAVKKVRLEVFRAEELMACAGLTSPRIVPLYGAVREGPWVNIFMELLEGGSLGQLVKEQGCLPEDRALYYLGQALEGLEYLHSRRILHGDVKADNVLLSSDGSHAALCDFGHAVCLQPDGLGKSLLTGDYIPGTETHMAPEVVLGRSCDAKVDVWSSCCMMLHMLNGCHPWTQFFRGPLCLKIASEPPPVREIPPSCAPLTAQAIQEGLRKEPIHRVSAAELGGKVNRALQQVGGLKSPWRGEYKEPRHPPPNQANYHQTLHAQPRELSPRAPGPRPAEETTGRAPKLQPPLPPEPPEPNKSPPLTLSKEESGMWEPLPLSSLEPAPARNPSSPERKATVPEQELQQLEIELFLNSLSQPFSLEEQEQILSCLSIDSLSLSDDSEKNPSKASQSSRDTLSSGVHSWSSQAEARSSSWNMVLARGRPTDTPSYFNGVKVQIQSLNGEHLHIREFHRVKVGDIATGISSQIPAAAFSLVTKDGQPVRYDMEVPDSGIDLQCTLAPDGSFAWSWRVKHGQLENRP

LC-2-ad [11] = experiment: Inhibition of cell migration in human LC-2-ad cells assessed as migrated distance at 3 uM measured after 52 hrs by microscopic method (reference value: 819.01 +/- 65.76 micrometer); type: functional
[12] = molecular target: T1, Proto-oncogene tyrosine-protein kinase receptor Ret; experiment: Non ATP-competitive inhibition of recombinant human GST-tagged RET cytoplasmic domain (658 to 1114 residues) expressed in baculovirus expression system at 3.125 to 50 nM using 5-FAM-EEPLYWSFPAKKK-CONH2 as substrate; settings: dose 3.125-50 nM

Row | Compound | IC50 [1] | other results
1 | O=C(Cc1ccc(Nc2ncnc3[nH]ccc23)cc1)Nc1cccc(C(F)(F)F)c1 | 16.2 µM | GI50 (LC-2-ad [2]): 33.5 µM
2 | CC(C)(C)c1ccc(-c2cc3c(Nc4ccc(CC(=O)Nc5cc(C(C)(C)C)on5)cc4)ncnc3[nH]2)cc1 | 13.5 µM | 
3 | CC(C)c1ccc(NC(=O)Cc2ccc(Nc3ncnc4[nH]c(-c5cnn(C)c5)cc34)cc2)cc1 | > 20 µM | 
4 | O=C(Cc1ccc(Nc2ncnc3sccc23)cc1)Nc1cccc(F)c1 | > 20 µM | 
5 | O=C(Cc1ccc(Nc2ncnc3[nH]ccc23)cc1)NCc1ccccc1 | 4.65 µM | 
6 | CS(=O)(=O)c1ccc(NC(=O)Cc2ccc(Nc3ncnc4[nH]ccc34)cc2)cc1 | > 20 µM | 
7 | O=C(Cc1ccc(Nc2ncnc3[nH]c(-c4ccsc4)cc23)cc1)Nc1cccc(F)c1 | > 20 µM | 
8 | Cn1nc(C(C)(C)C)cc1NC(=O)Cc1cccc(Nc2ncnc3[nH]ccc23)c1 | 39.6 µM | 
9 | COc1cc2nccc(Oc3ccc(NC(=O)C4(C(=O)Nc5ccc(F)cc5)CC4)cc3)c2cc1OC [CABOZANTINIB] |  | Activity (LC-2-ad [3]): 287.3 um
10 | CC(C)(C)c1ccc(NC(=O)Cc2ccc(Nc3ncnc4[nH]ccc34)cc2)cc1 | 15.8 µM | 
11 | CC(C)(C)c1ccc(-c2cc3c(Nc4ccc(CC(=O)Nc5cccc(F)c5)cc4)ncnc3[nH]2)cc1 | > 20 µM | 
12 | COc1ccc(-c2cc3c(Nc4ccc(CC(=O)Nc5ccc(F)cc5)cc4)ncnc3[nH]2)cc1 | > 20 µM | 
13 | O=C(Cc1ccc(Nc2ncnc3[nH]ccc23)cc1)Nc1ccc(OC(F)(F)F)cc1 | > 20 µM | 
14 | COc1cc(NC(=O)Cc2ccc(Nc3ncnc4[nH]ccc34)cc2)cc(OC)c1OC | 47.6 µM | 
15 | O=C(Cc1ccc(Nc2ncnc3[nH]ccc23)cc1)Nc1cccc(F)c1 | > 20 µM | 
16 | Cn1cc(-c2cc3c(Nc4ccc(CC(=O)Nc5cccc(F)c5)cc4)ncnc3[nH]2)cn1 | > 20 µM | 
17 | O=C(Cc1ccc(Nc2ncnc3[nH]ccc23)cc1)Nc1ccc(C(F)(F)F)c(Cl)c1 | > 20 µM | 
18 | COc1ccc(-c2cc3c(Nc4ccc(CC(=O)Nc5cccc(F)c5)cc4)ncnc3[nH]2)cc1 | > 20 µM | 
19 | O=C(Cc1ccc(Nc2ncnc3[nH]ccc23)cc1)Nc1cccc2ncccc12 | 19 µM | 
20 | CC(C)(C)c1cc(NC(=O)Cc2cccc(Nc3ncnc4[nH]ccc34)c2)no1 | 31.6 µM | GI50 (LC-2-ad [2]): 43.7 µM
21 | O=C(Cc1ccc(Nc2ncnc3[nH]ccc23)cc1)Nc1ccc2c(c1)OCO2 | > 20 µM | 
22 | CC(C)c1ccc(NC(=O)Cc2ccc(Nc3ncnc4[nH]ccc34)cc2)cc1 | 7.69 µM | GI50 (LC-2-ad [2]): 29.6 µM

Continued, in another order:

Row | IC50 [1] | Compound | other results
23 | 0.044 µM | CC(=O)c1ccc(-c2cc3c(Nc4ccc(CC(=O)Nc5cc(C(C)(C)C)on5)cc4)ncnc3[nH]2)cc1 | 
24 | 0.82 µM | Cn1cc(-c2cc3c(Nc4ccc(CC(=O)Nc5cc(C(C)(C)C)on5)cc4)ncnc3s2)cn1 | 
25 | 2.37 µM | O=C(Cc1ccc(Nc2ncnc3[nH]ccc23)cc1)NC1CC1 | GI50 (LC-2-ad [2]): 14 µM
26 | 0.021 µM | Cn1cc(-c2cc3c(Nc4ccc(CC(=O)Nc5cc(C(C)(C)C)nn5C)cc4)ncnc3[nH]2)cn1 | IC50 [4]: 0.0728 µM
27 | 3.51 µM | Cn1ccc2c(Nc3ccc(CC(=O)Nc4cc(C(C)(C)C)on4)cc3)ncnc21 | 
28 | 0.009 µM | Cn1cc(-c2cc3c(Nc4ccc(CC(=O)Nc5cc(C(C)(C)C)on5)cc4)ncnc3[nH]2)cn1 | IC50 [4]: 0.0635 µM; GI50 (LC-2-ad [2]): 0.136 µM
29 | 0.127 µM | Cn1nc(C(C)(C)C)cc1NC(=O)Cc1ccc(Nc2ncnc3[nH]ccc23)cc1 | GI50 (LC-2-ad [2]): 1.65 µM
30 | 0.052 µM | Cn1nc(C(C)(C)C)cc1NC(=O)Cc1ccc(Nc2ncnc3[nH]c(-c4ccsc4)cc23)cc1 | 
31 | 0.96 µM | CC(C)(C)c1cc(NC(=O)Cc2ccc(Nc3ncnc4sccc34)cc2)no1 | GI50 (LC-2-ad [2]): 15.2 µM
32 | 0.05 µM | CC(C)(C)c1cc(NC(=O)Cc2ccc(Nc3ncnc4[nH]c(-c5ccsc5)cc34)cc2)no1 | GI50 (LC-2-ad [2]): 0.18 µM
33 | 0.076 µM | CC(C)(C)c1cc(NC(=O)Cc2ccc(Nc3ncnc4[nH]ccc34)cc2)no1 | GI50 (LC-2-ad [2]): 1.26 µM
34 | 0.009 µM | Cn1nc(C(C)(C)C)cc1NC(=O)Cc1ccc(Nc2ncnc3[nH]c(-c4ccc(S(C)(=O)=O)cc4)cc23)cc1 | 
35 | 1.06 µM | Cn1nc(C(C)(C)C)cc1NC(=O)Cc1ccc(Nc2ncnc3sccc23)cc1 | GI50 (LC-2-ad [2]): 17.5 µM
36 | 1.39 µM | Cn1cc(-c2cc3c(Nc4ccc(CC(=O)Nc5cc(C(C)(C)C)nn5C)cc4)ncnc3s2)cn1 | 
37 | 0.12 µM | COc1ccc(-c2cc3c(Nc4ccc(CC(=O)Nc5cc(C(C)(C)C)nn5C)cc4)ncnc3[nH]2)cc1 | 
38 | 2.44 µM | COc1ccc(-c2cc3c(Nc4ccc(CC(=O)Nc5ccc(C(C)C)cc5)cc4)ncnc3[nH]2)cc1 | 
39 | 3.93 µM | Cn1nc(C(C)(C)C)cc1NC(=O)Cc1ccc(Nc2ncnc3c2ccn3C)cc1 | GI50 (LC-2-ad [2]): 36.4 µM
40 | 0.0068 µM | CC(C)(C)c1cc(NC(=O)Cc2ccc(Nc3ncnc4[nH]c(-c5ccc(S(C)(=O)=O)cc5)cc34)cc2)no1 | IC50 [5]: 56.8 µM; IC50 [6]: 3.43 µM; IC50 [4]: 0.0135 µM; IC50 [7]: > 200 µM; inhibition [8]: Active; IC50 (Aurora kinase B): 0.536 µM; IC50 (Aurora kinase A): 0.242 µM; GI50 (LC-2-ad [2]): 0.107 µM; IC50 [9]: 1.65 µM; IC50 [10]: > 10 µM; Activity (LC-2-ad [11]): 356.41 um; inhibition [12]: Active
41 | 3.91 µM | O=C(Cc1ccc(Nc2ncnc3[nH]ccc23)cc1)NC1CCC1 | 
